According to patent US9440969B2, “Compounds and methods for kinase modulation, and indications therefor” (PLEXXIKON INC., priority 2009, dated 2016):

Experiments:
[1] = Relative solubility by turbidity in aqueous buffers (pH 1.5, 4.5, 6.8, 7.4); format: physicochemical; conditions: for turbidity threshold (L, M, H) 1.4: pH 1.5 buffer (SGF); for turbidity threshold (L, M, H) 4.5: pH 4.5 buffer (SIF); for turbidity threshold (L, M, H) 6.8: pH 6.8 buffer (SIF); for turbidity threshold (L, M, H) 7.4: pH 7.4 buffer (HEPES)
In short: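 2-fold DMSO dilution series from 25 mM stocks were added to SGF (0.5M NaCl, pH 1.5), SIF (0.05M NaH2PO4, pH 4.5/6.8) or HEPES (10 mM, 150 mM NaCl, pH 7.4). Absorbance at 490, 535 and 650 nm; value is the concentration crossing OD 0.01, averaged over wavelengths. Low <31.3 μM, moderate 31.3–250 μM, high >250 μM.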

CYP1A2 = target: T1, CYP1A2 (Homo sapiens, UniProt P05177); experiment: CYP1A2 inhibition (fluorescent substrate CEC); format: in vitro ADME; conditions: read-out: Cyp IC50 (μM) 1A2
T1 sequence (P05177 1-516): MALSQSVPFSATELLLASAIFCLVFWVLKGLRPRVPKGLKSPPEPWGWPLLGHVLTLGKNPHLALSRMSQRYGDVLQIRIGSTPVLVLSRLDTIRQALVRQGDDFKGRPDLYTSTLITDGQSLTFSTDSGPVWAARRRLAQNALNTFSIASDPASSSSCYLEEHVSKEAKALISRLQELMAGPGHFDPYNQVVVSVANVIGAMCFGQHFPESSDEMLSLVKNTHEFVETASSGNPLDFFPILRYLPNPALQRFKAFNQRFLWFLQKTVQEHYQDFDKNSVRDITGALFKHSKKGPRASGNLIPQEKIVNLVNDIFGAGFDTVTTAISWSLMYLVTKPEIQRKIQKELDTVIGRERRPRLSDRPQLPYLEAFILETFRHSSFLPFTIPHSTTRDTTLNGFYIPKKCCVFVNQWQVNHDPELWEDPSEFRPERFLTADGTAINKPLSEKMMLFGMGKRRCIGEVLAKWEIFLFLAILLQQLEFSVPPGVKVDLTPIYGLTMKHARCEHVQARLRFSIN
Experimental: (§1) CYP (Cytochrome P450) enzymes are the major drug metabolizing enzymes present in the liver. The inhibition of CYP enzyme activity (IC50) for each of CYP1A2, CYP2C19, CYP2C9, CYP2D6, CYP3A4(BFC) and CYP3A4(BQ) is determined for compounds, where inhibition of metabolism of a known substrate leads to a decrease in the fluorescence of the metabolized product. The fluorescence of the product is monitored as a function of compound concentration. Compounds are dissolved in dimethyl sulfoxide to a concentration of 100 mM. These are diluted […], into 82 μL of acetonitrile. An 11 μL aliquot of this solution is then added to 204 μL of cofactor mix (1.3% NADPH Regeneration system Solution A, 1.04% NADPH Regeneration system Solution B from BD Biosciences, 5% acetonitrile and 0.05% dimethyl sulfoxide). These are then serially diluted 1:1 (160 μL to 160 μL co-factor mix) for a total of 10 points. A 10 μL aliquot of this final mixture is dispensed into 384 well assay plates and incubated for 10 minutes at 37° C. Enzyme and substrate mix (10 μL; 0.5 pmol CYP1A2/5 μM CEC; 1.0 pmol CYP2C9/75 μM MFC; 0.5 pmol CYP2C19/25 μM CEC; 1.5 pmol CYP2D6/1.5 μM AMMC; 1.0 pmol CYP3A4/50 μM BFC; or 1.0 pmol CYP3A4/40 μM BQ) is added to these assay plates. Assay plates are incubated at 37° C. (CYP1A2-15 min; CYP2C9-45 min; CYP2C19, 2D6 and 3A4-30 min) and read in a Tecan Safire 2 plate reader (CYP1A2, 2C19 and 3A4 409 ex/460 em; CYP2C9 and 2D6 409 ex/530 em). The signal versus compound concentration is used to determine the IC50. The enzymes and substrates for this assay are obtained from BD Biosciences.

CYP2C19 = CYP2C19 (Homo sapiens, UniProt P33261); experiment: CYP2C19 inhibition (fluorescent substrate CEC); format: in vitro ADME; conditions: read-out: Cyp IC50 (μM) 2C19
Experimental: as §1

CYP2C9 = CYP2C9 (Homo sapiens, UniProt P11712); experiment: CYP2C9 inhibition (fluorescent substrate MFC); format: in vitro ADME; conditions: read-out: Cyp IC50 (μM) 2C9
Experimental: as §1

CYP2D6 = CYP2D6 (Homo sapiens, UniProt P10635); experiment: CYP2D6 inhibition (fluorescent substrate AMMC); format: in vitro ADME; conditions: read-out: Cyp IC50 (μM) 2D6
Experimental: as §1

CYP3A4(BFC) = CYP3A4(BFC) (Homo sapiens, UniProt P08684); experiment: CYP3A4 inhibition (substrate BFC); format: in vitro ADME; conditions: read-out: Cyp IC50 (μM) 3A4(BFC)
Experimental: as §1

CYP3A4(BQ) = CYP3A4(BQ) (Homo sapiens, UniProt P08684); experiment: CYP3A4 inhibition (substrate BQ); format: in vitro ADME; conditions: read-out: Cyp IC50 (μM) 3A4(BQ)
Experimental: as §1

B-Raf = B-Raf (Homo sapiens, UniProt P15056); experiment: B-Raf kinase activity assay (AlphaScreen, biotin-MEK1 substrate); conditions: 100 μM ATP, 100 nM biotin-MEK1, 45 minutes at room temperature; read-out: Biochemical activity (IC50 μM) B-Raf
In short: (§2)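 AlphaScreen detection of phospho-MEK1 uses anti-phospho-MEK1/2 antibody and donor/acceptor beads, incubated 3 h. The kinase step runs 45 min at room temperature with 0.1 ng enzyme, 100 nM biotin-MEK1 and 100 μM ATP in 50 mM HEPES pH 7.0. IC50 is derived from eight compound concentrations.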

B-Raf V600E = B-Raf V600E (Homo sapiens, UniProt P15056, V600E); experiment: B-Raf V600E kinase activity assay (AlphaScreen, biotin-MEK1 substrate); conditions: 100 μM ATP, 100 nM biotin-MEK1, 45 minutes at room temperature, read-out: Biochemical activity (IC50 μM) V600E
In short: as §2

c-Raf-1 = c-Raf-1 (Homo sapiens, UniProt P04049); experiment: c-Raf-1 kinase activity assay (AlphaScreen, biotin-MEK1 substrate); conditions: 100 μM ATP, 100 nM biotin-MEK1, 45 minutes at room temperature; read-out: Biochemical activity (IC50 μM) c-Raf-1
In short: as §2

[2] = test system: COLO205 colon adenocarcinoma (B-Raf V600E mutation); experiment: COLO205 cell growth inhibition (ATPlite luminescence); format: cell-based; conditions: Homo sapiens, COLO 205, 72 h, COLO205 cells, incubated 3 days with compound
Experimental: Compounds are assessed in a variety of cell based assays. For example human cell lines with B-Raf V600E mutation (A375 melanoma, SKMEL3 melanoma, and COLO205 colon adenocarcinoma), as well as tumorigenic cell lines with wild-type B-RAF (SW620 colon adenocarcinoma) or with Ras mutations (SKMEL2 melanoma and IPC298 melanoma). Similar assays may be used to assess additional tumorigenic cell lines with Ras mutations, including, but not limited to, M202, M207, M243, M244, M296, S117, HCT116, HCT15, DLD1, MiaPaCa, A549, NCI-H23, NCI-H460, HOP62, MDA-MB231, Hs-578T, HL60, MOLT-4, and CCRF-CEM.
On day 1, cells are counted, then centrifuged in a conical tube for 5 minutes at 1000 rpm. The supernatant is removed and cells are re-suspended as follows: • SW620 (ATCC catalog #CCL-27): resuspend in Leibovitz's L-15 medium, 2 mM L-glutamine, 10% fetal bovine serum to 6×10^4 cells/mL. • A375 (ATCC catalog #CRL-1619): resuspend in Dulbecco's modified Eagle's medium, 4 mM L-glutamine, 4.5 g/L D-glucose, 10% fetal bovine serum to 6×10^4 cells/mL. • COLO205 (ATCC catalog #CCL-222): resuspend in RPMI 1640, 2 mM L-glutamine, 1.5 g/L sodium bicarbonate, 4.5 g/L D-glucose, 10 mM HEPES, 1.0 mM sodium pyruvate, 10% fetal bovine serum to 6×10^4 cells/mL. • SKMEL2 (ATCC catalog #HTB-68): resuspend in Minimum Eagle essential medium, 2 mM L-glutamine, 1.5 g/L sodium bicarbonate, 0.1 mM non-essential amino acids, 1.0 mM sodium pyruvate, 10% fetal bovine serum to 6×10^4 cells/mL. • SKMEL3 (ATCC catalog #HTB-69): resuspend in McCoy's 5A medium, 1.5 mM L-glutamine, 15% fetal bovine serum to 6×10^4 cells/mL. • IPC298 (DSMZ catalog #ACC 251): resuspend in RPMI 1640, 2 mM L-glutamine, 10% fetal bovine serum to 6×10^4 cells/mL.
The cells are plated, 50 μL in each well of a 96-well dish (Corning 3610) and incubated at 37° C. in 5% CO2 overnight, cells plated to a final concentration of cells as follows:
On day 2, compound at a maximum concentration of 5 mM is serially diluted 1:3 (e.g. 10 μL with 30 μL dimethyl sulfoxide) for a total of 8 point titration with DMSO as a control. A 1 μL aliquot of each dilution point and control is added to 249 μL growth media and 50 μL is added to a well containing cells, providing 10 μM compound at the maximum concentration point. The cells are incubated for 3 days at 37° C. in 5% CO2.
On day 5, ATPlite 1 step Luminescence Assay System (Perkin Elmer #6016739) is brought to room temperature along with the cell cultures. ATPlite is added 25 μL to each well, shake for 2 minutes, and the cells are incubated at room temperature for 10 minutes, then luminescence is read on Safire reader. The measured luminescence correlates directly with cell number, such that the reading as a function of compound concentration is used to determine the IC50 value.
It is understood that the results of these assays may vary as assay conditions are varied. Inhibition levels determined under the conditions described herein represent a relative activity for the compounds tested under the specific conditions employed. The cell based assays are likely to show variability due to the complexity of the system and the sensitivity thereof to any changes in the assay conditions. […] Results for compounds that are tested and show substantially no inhibition below the highest tested concentration are represented as “-” in the tables below. In some instances, the compounds were not tested in all of the assays, or assay results were not valid, as indicated by NA in the tables below.

Chain of CYP2D6 (P10635 whole entry): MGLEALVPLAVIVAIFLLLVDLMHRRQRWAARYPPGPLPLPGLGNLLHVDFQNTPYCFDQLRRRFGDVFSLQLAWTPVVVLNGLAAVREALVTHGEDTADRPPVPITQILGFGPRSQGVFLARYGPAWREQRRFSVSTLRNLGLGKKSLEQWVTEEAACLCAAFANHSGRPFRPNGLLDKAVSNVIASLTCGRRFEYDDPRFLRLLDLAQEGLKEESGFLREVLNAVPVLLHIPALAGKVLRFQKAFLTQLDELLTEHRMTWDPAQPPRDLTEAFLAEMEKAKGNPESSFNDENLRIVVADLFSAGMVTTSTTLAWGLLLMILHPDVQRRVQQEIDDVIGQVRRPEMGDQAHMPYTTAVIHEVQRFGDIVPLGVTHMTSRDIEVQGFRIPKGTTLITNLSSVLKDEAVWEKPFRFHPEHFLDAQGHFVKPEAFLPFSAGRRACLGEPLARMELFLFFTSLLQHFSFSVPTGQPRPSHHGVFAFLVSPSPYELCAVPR
Chain of c-Raf-1 (P04049 whole entry Y340D/Y341D, form open): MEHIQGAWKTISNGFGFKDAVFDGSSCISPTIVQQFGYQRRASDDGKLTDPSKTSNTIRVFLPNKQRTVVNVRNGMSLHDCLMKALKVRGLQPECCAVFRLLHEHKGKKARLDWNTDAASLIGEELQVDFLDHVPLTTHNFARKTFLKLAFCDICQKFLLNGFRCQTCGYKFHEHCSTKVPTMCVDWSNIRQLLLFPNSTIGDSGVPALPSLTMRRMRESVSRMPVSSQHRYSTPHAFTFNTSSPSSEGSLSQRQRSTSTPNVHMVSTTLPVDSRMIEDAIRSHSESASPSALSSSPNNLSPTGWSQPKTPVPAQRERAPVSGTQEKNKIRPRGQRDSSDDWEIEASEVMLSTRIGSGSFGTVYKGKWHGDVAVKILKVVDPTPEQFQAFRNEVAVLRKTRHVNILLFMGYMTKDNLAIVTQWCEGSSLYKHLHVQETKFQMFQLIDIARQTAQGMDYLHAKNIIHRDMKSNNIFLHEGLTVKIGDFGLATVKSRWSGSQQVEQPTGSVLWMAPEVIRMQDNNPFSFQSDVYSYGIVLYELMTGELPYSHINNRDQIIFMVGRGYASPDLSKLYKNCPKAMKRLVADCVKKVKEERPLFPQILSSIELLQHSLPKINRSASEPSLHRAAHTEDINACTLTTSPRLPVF
Chain of B-Raf (P15056 whole entry): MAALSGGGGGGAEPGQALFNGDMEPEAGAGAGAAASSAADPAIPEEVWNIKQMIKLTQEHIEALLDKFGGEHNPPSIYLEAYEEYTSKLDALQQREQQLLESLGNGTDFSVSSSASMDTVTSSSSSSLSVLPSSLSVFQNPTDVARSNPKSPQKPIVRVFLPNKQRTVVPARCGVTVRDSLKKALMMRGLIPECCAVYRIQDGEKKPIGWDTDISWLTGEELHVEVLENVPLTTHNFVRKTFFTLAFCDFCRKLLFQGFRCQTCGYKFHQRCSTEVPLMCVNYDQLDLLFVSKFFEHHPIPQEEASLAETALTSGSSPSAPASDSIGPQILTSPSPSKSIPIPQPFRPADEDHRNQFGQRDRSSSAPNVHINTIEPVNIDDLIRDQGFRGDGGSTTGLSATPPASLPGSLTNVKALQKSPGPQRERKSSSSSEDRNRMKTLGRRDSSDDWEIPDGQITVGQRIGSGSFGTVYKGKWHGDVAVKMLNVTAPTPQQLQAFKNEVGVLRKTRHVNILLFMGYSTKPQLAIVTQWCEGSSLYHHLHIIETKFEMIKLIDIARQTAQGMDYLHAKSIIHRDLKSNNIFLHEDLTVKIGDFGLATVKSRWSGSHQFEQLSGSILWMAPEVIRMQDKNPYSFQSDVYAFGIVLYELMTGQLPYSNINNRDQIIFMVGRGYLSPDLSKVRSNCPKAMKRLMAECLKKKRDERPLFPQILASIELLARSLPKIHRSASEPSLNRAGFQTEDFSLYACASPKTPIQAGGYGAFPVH
Chain of CYP2C9 (P11712 whole entry): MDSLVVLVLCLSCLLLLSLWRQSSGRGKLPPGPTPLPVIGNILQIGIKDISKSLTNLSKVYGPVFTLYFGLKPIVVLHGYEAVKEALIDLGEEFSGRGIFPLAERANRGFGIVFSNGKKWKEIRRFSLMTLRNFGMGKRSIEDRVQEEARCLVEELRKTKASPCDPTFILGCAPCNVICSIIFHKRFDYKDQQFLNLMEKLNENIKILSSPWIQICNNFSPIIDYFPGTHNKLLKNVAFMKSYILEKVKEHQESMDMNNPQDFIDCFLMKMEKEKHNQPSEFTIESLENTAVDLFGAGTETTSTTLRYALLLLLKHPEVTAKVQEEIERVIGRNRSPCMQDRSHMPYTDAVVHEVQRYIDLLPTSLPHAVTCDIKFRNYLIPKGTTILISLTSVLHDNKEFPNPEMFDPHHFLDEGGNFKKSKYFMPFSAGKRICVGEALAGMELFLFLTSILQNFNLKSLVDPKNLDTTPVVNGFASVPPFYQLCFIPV
Chain of B-Raf V600E (P15056 whole entry V600E): as the sequence (P15056 whole entry) above, with V600E counted along it
Chain of CYP3A4(BFC) (P08684 whole entry): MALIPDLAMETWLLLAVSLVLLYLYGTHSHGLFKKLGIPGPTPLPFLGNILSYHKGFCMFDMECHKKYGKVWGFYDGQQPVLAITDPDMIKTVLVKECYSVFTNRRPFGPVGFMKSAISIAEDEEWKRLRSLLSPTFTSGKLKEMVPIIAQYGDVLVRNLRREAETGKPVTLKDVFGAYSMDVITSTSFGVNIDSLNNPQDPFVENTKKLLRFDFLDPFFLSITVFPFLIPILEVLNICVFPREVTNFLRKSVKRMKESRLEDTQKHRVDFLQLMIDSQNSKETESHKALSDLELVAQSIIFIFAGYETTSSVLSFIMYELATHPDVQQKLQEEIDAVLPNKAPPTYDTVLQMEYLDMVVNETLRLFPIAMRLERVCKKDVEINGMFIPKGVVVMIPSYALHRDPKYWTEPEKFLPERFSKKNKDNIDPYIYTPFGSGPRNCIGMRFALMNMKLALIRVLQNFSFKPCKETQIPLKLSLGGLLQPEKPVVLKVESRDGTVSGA
Chain of CYP3A4(BQ) (P08684 whole entry): as above
Chain of CYP2C19 (P33261 whole entry): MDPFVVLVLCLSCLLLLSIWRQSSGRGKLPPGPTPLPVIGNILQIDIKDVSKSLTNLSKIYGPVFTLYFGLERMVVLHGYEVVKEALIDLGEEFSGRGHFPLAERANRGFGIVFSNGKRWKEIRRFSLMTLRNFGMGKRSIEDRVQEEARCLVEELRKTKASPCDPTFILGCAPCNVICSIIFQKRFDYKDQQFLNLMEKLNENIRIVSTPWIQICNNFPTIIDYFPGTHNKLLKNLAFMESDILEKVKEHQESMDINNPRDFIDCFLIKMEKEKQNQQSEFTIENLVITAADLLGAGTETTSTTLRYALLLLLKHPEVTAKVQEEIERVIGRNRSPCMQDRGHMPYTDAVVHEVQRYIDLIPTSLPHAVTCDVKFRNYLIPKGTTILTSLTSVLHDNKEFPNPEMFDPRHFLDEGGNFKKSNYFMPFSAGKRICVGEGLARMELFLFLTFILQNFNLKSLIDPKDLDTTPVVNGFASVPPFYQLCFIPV

CCCS(=O)(=O)Nc1ccc(F)c(C(=O)c2c[nH]c3ncc(-c4ccc5cccnc5c4)cc23)c1F [P-0033, Propane-1-sulfonic acid [2,4-difluoro-3-(5-quinolin-7-yl-1H-pyrrolo[2,3-b]pyridine-3-carbonyl)-phenyl]-amide]
turbidity threshold (L, M, H) 1.4 [1]: L (low solubility if the threshold concentration is <31.3 μM)
turbidity threshold (L, M, H) 4.5 [1]: L (low solubility if the threshold concentration is <31.3 μM)
turbidity threshold (L, M, H) 6.8 [1]: L (low solubility if the threshold concentration is <31.3 μM)
turbidity threshold (L, M, H) 7.4 [1]: L (low solubility if the threshold concentration is <31.3 μM)
IC50 (CYP1A2): > 10 µM
IC50 (CYP2C19): < 5 µM
IC50 (CYP2C9): > 10 µM
IC50 (CYP2D6): > 10 µM
IC50 (CYP3A4(BFC)): > 10 µM
IC50 (CYP3A4(BQ)): > 10 µM

CCCS(=O)(=O)Nc1ccc(F)c(C(=O)c2c[nH]c3ncc(-c4ccc5ncccc5c4)cc23)c1F [P-0034, Propane-1-sulfonic acid [2,4-difluoro-3-(5-quinolin-6-yl-1H-pyrrolo[2,3-b]pyridine-3-carbonyl)-phenyl]-amide]
IC50 (CYP1A2): > 10 µM
IC50 (CYP2C19): > 10 µM
IC50 (CYP2C9): > 10 µM
IC50 (CYP2D6): > 10 µM
IC50 (CYP3A4(BFC)): > 10 µM
IC50 (CYP3A4(BQ)): > 10 µM

O=C(c1c(F)ccc(NS(=O)(=O)c2cc(F)ccc2F)c1F)c1c[nH]c2ncc(-c3cnc(NC4CC4)nc3)cc12 [P-1506, N-{3-[5-(2-Cyclopropylamino-pyrimidin-5-yl)-1H-pyrrolo[2,3-b]pyridine-3-carbonyl]-2,4-difluoro-phenyl}-2,5-difluoro-benzenesulfonamide]
turbidity threshold (L, M, H) 1.4 [1]: L (low solubility if the threshold concentration is <31.3 μM)
turbidity threshold (L, M, H) 4.5 [1]: L (low solubility if the threshold concentration is <31.3 μM)
turbidity threshold (L, M, H) 6.8 [1]: L (low solubility if the threshold concentration is <31.3 μM)
turbidity threshold (L, M, H) 7.4 [1]: L (low solubility if the threshold concentration is <31.3 μM)
IC50 (CYP1A2): > 10 µM
IC50 (CYP2C19): > 10 µM
IC50 (CYP2C9): < 5 µM
IC50 (CYP2D6): > 10 µM
IC50 (CYP3A4(BFC)): < 5 µM
IC50 (CYP3A4(BQ)): > 10 µM

CCCS(=O)(=O)Nc1ccc(F)c(C(=O)c2c[nH]c3ncc(-c4ccc5c(c4)C(=O)NC5)cc23)c1F [P-1702, Propane-1-sulfonic acid {2,4-difluoro-3-[5-(3-oxo-2,3-dihydro-1H-isoindol-5-yl)-1H-pyrrolo[2,3-b]pyridine-3-carbonyl]-phenyl}-amide]
IC50 (B-Raf): < 0.1 µM
IC50 (B-Raf V600E): < 0.1 µM
IC50 (c-Raf-1): < 0.1 µM
IC50 [2]: < 1 µM

CCCS(=O)(=O)Nc1ccc(F)c(C(=O)c2c[nH]c3ncc(-c4ccc5c(c4)CC(=O)N5)cc23)c1F [P-1703, Propane-1-sulfonic acid {2,4-difluoro-3-[5-(2-oxo-2,3-dihydro-1H-indol-5-yl)-1H-pyrrolo[2,3-b]pyridine-3-carbonyl]-phenyl}-amide]
IC50 (B-Raf): < 0.1 µM
IC50 (B-Raf V600E): < 0.1 µM
IC50 (c-Raf-1): < 0.1 µM
IC50 [2]: < 1 µM

CCCS(=O)(=O)Nc1ccc(F)c(C(=O)c2c[nH]c3ncc(C(=O)Nc4cccnc4)cc23)c1F [P-1801, 3-[2,6-Difluoro-3-(propane-1-sulfonylamino)-benzoyl]-1H-pyrrolo[2,3-b]pyridine-5-carboxylic acid pyridin-3-ylamide]
IC50 (B-Raf): < 0.1 µM
IC50 (B-Raf V600E): < 0.1 µM
IC50 (c-Raf-1): < 0.1 µM
IC50 [2]: > 1 µM
